According to article PMC3199867, “Targeting surface nucleolin with multivalent HB-19 and related Nucant pseudopeptides results in distinct inhibitory mechanisms depending on the malignant tumor cell type” (BMC Cancer, 2011):

Assays:
Type in all cases: cell-based, human
surface nucleolin = experiment: HIV-1 LAI entry into HeLa-CD4-LTR-LacZ cells (β-galactosidase): function of surface nucleolin; conditions: 0.05-0.8 μM, β-galactosidase at 48 h post-infection
Excerpt: Surface nucleolin serves as a low affinity receptor implicated in the binding and entry of HIV-1 particles into permissive cells. Consequently, HB-19 treatment of cells prevents HIV binding to cells and thus HIV entry and infection. Here HIV-1 LAI entry was monitored in HeLa-CD4-LTR-LacZ cells containing the bacterial lacZ gene under the control of HIV-1 LTR. Virus entry and replication result in trans-activation of HIV-1 LTR by the viral Tat protein, leading to the expression of β-galactosidase. At 48 h post-infection, cell monolayers are lysed in a phosphate buffer containing Nonidet P-40 (Sigma) (1%; v ⁄ v) and assayed for β-galactosidase activity by measuring optical density at 570 nm.
Figure 2 HB-19 and related Nucant pseudopeptides antagonize surface nucleolin and trigger its down regulation. A. Multivalent pseudopeptides block the biological function of surface nucleolin for HIV entry. […] At 48 h post-infection, the β-galactosidase activity was measured in cell extracts directly to monitor HIV entry (Methods). The abscissa gives % Activity of surface nucleolin calculated from the optical density measurements at 570 nm. […] Cytoplasmic (containing cytoplasmic as well as surface nucleolin) and nuclear extracts were analyzed by immunoblotting using mAb D3 as described (Methods)(panels Surface/cytoplasmic NCL, Nuclear NCL). […]

HL60 = experiment: Cell death (trypan blue uptake); conditions: HL60, freshly passaged, N6 or N7 20 μM, mean of at least 2 independent experiments
Method: (§1) Human breast (MDA-MB-231, MDA-MB-435 [37]), prostate (LNCaP, from American Type Culture Collection, ATCC, Rockville, MD), and cervical (HeLa) epithelial cancer cells were grown in DMEM-glutamax medium (Gibco Invitrogen, Cergy-Pontoise, France) containing GlutaMAX™, 4.5 g/l glucose and supplemented with 10% heat-inactivated (56°C for 30 min) fetal bovine serum (FBS; Hyclone, Thermo Fisher Scientific, Inc). Human SW480 cells are derived from a grade 3-4 colon carcinoma, while the highly metastatic counterpart SW620 is established from the lymph node of a person. Both SW480 and SW620 cells (obtained from Francis Raul, IRCAD) are highly tumorigenic in nude mice. They were cultured in D-MEM, 10% FCS. The murine melanoma TIII cell line was obtained from Armelle Prévost-Blondel. Murine T29 lymphoma cells, obtained from Philippe Kastner (CNRS, Strasbourg), have been established from Ik^L/L tumors from mice carrying a hypomorphic mutation (Ik^L/L) in the Ikaros gene encoding a transcription factor that regulates lymphocyte differentiation, and acts also as a tumor suppressor in T lymphocytes. The T29 cells were cultured in RPMI medium containing 25 mM Hepes pH 7.6, 1 mM sodium pyruvate, and 10% FCS. Human leukemia cell lines, Jurkat (acute T cell leukemia), HuT 78 (cutaneous T lymphocyte), RAJI (Burkitt lymphoma), and HL60 (promyelocytic leukemia) were cultured in RPMI-1640 medium (Gibco) containing GlutaMAX™, and supplemented with 10% heat-inactivated FBS as described before. The wild-type Chinese hamster ovary cell line (CHO K1) was purchased from American Type Culture Collection (ATCC; Rockville, MD). The CHO LRP1-null cell line (CHO-13-5-1) was kindly provided by D. Strickland [47]. They were cultured in Ham's F12K medium. All cells were cultured with 10% (v/v) heat inactivated (56°C, 30 min) fetal bovine serum (FBS) (Roche Molecular Biochemicals, Indianapolis, IN) and 50 international units/mL penicillin-streptomycin (Invitrogen). Cell death was monitored conveniently by uptake of the trypan blue dye due to plasma membrane permeability of dying and/or dead cells.

HeLa = experiment: Cell death (trypan blue uptake); conditions: subconfluent, N6 or N7 20 μM, mean of at least 2 independent experiments
Method: as §1

Jurkat = experiment: Cell death (trypan blue uptake); conditions: freshly passaged, N6 or N7 20 μM, mean of at least 2 independent experiments
Method: as §1

LNCaP = experiment: Cell death (trypan blue uptake); conditions: subconfluent, N6 or N7 20 μM, mean of at least 2 independent experiments
Method: as §1

MDA-MB 231 = experiment: Cell death (trypan blue uptake); conditions: MDA-MB 231, subconfluent, N6 or N7 20 μM, mean of at least 2 independent experiments
Method: as §1

RAJI = experiment: Cell death (trypan blue uptake); conditions: freshly passaged, N6 or N7 20 μM, mean of at least 2 independent experiments
Method: as §1

SW480 = experiment: Cell death (trypan blue uptake); conditions: SW480, subconfluent, N6 or N7 20 μM, mean of at least 2 independent experiments
Method: as §1

SW620 = experiment: Cell death (trypan blue uptake); conditions: SW620, subconfluent, N6 or N7 20 μM, mean of at least 2 independent experiments
Method: as §1

Ac-Lys-Aib-Gly-Lys-Aib-Gly-Lys-Aib-Gly-Lys-Aib-Gly-Lys-Aib-Gly-Lys-Aib-Gly-CONH2 [Nucant N6, Presents hexavalently the pseudo-tripeptide Lysψ(CH2N)-Pro-Arg coupled to the polypeptide template containing Aib]
inhibitory activity on HIV-1 entry, fold more active compared to the pentavalent constructs N3 and HB-19 (surface nucleolin): at least 2 fold
% Cell death After 24 hours (HL60): 35%
% Cell death After 24 hours (HeLa): < 5%
% Cell death After 24 hours (Jurkat): 45%
% Cell death After 24 hours (LNCaP): < 5%
% Cell death After 24 hours (MDA-MB 231): < 5%
% Cell death After 24 hours (RAJI): 42%
% Cell death After 24 hours (SW480): < 5%
% Cell death After 24 hours (SW620): < 5%

Ac-KAKPGKAKPGKAKPG-NH2 [Nucant N7, Presents hexavalently the pseudo-tripeptide Lysψ(CH2N)-Pro-Arg coupled to a similar template as in HB-19]
inhibitory activity on HIV-1 entry, fold more active compared to the pentavalent constructs N3 and HB-19 (surface nucleolin): at least 2 fold
% Cell death After 24 hours (HL60): 35%
% Cell death After 24 hours (HeLa): < 5%
% Cell death After 24 hours (Jurkat): 45%
% Cell death After 24 hours (LNCaP): < 5%
% Cell death After 24 hours (MDA-MB 231): < 5%
% Cell death After 24 hours (RAJI): 42%
% Cell death After 24 hours (SW480): < 5%
% Cell death After 24 hours (SW620): < 5%
